From US9365522B2, “Pyrazole amide derivative” (AMGEN INC., priority 2015, dated 2016) come the findings set out here.

The first assay has as its target T1, ligand binding domain of human ROR gamma (Homo sapiens, UniProt P51449).
T1 construct: NM_001001523; expressed in transfected cells; host or cells: HEK293T
T1 sequence (P51449 247-497 isoform P51449-2): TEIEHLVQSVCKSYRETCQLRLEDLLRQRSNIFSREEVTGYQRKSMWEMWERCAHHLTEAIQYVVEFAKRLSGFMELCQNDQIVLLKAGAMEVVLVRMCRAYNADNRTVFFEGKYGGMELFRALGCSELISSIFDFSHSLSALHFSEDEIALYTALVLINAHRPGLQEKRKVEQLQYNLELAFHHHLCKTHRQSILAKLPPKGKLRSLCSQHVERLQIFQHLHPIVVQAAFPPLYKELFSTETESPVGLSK
The assay can be described thus: ROR gamma reporter gene assay (GAL4-RORγ LBD luciferase, Dual-Glo). The assay is classed as cell-based. The following applies: HEK293T cells transfected with pM-ROR gamma, 8 concentrations 3.5 nM to 10.5 μM, 24 h incubation. As for the experimental part: Luciferase reporter gene assay was used to assess inhibition of RORγ transcriptional activity.
ROR gamma expression vector was prepared by inserting the ligand binding domain of human ROR gamma (amino acid 247-497 of Genbank Accession NO. NM_001001523) adjacent to the yeast GAL4 transcription factor DNA binding domain in the expression vector pM (Clontech). The resulting expression vector pM-ROR gamma was used in transfection experiments together with the pGL4 luciferase reporter plasmid (Promega) containing five copies of the UAS GAL4 recognition site and pRL-CMV plasmids (Promega) containing the constitutive CMV promoter and the renilla luciferase.
For preparing transfection reagent/DNA mixture, 1 μg pM-ROR gamma, 1 μg pGL4 5×UAS, 625 pg pRL-CMV and 6.25 μL FuGENE™ HD transfection reagent (Promega) were mixed in 0.25 mL OPTI-MEM™ (Life technologies) at room temperature. At the same time, Negative control DNA mixture was prepared by using 1 μg pM empty vector instead of pM-ROR gamma plasmid. After a fifteen minute incubation, 0.25 mL of transfection reagent/DNA mixture was added to 1,000,000 of HEK293T cells (ATCC) in 5 mL of OPTI-MEM™ containing 10% Charcoal Stripped Fetal Bovine Serum.
Transfected cells were seeded onto 384 well plate (10 μL/well) and the 7.5 nL of test compounds were added to the wells in 8 concentrations ranging from 3.5 nM to 10.5 μM. The compounds were dissolved in 100% DMSO and the final concentration of DMSO in the assay was 0.075%.
After 24 h of incubation at 37° C., 5% CO2 in a cell culture incubator, the Dual-Glo™ Luciferase Assay System was used to detect activity according to the manufacturer's instructions (Promega, Cat. No.: E2920).
Data was plotted and pIC50 values were calculated using the XLfit program (ID Business Solutions Ltd.).
A general note: In a reporter assay the amount or activity of a reporter protein is the signal.
For `CC1(C)CC[C@@H](CN(CC(=O)c2c(Cl)cncc2Cl)C(=O)c2cnn([C@H]3CC[C@H](C(=O)O)CC3)c2C(F)(F)F)O1` (relative stereo) [Example 14, trans-4-(4-((2-(3,5-dichloropyridin-4-yl)-2-oxoethyl)(((S)-5,5-dimethylTHF-2-yl)methyl)carbamoyl)-5-(trifluoromethyl)-1H-pyrazol-1-yl)cyclohexanecarboxylic acid], the “result (pIC50, inhibition of RORγ transcriptional activity)” value was 7.12.

The assay is the same for the next values; noted with them: HEK293T cells transfected with pM-ROR gamma, 8 concentrations 3.5 nM to 10.5 μM, 24 h incubation; read-out: result (pIC50, inhibition of RORγ transcriptional activity) (converted).
As to `CC1(C)CCC(N(CC(O)c2c(Cl)cc(F)cc2Cl)C(=O)c2cnn([C@H]3CC[C@](C)(C(=O)O)CC3)c2C(F)(F)F)CC1` (single isomer, unassigned) [Example 361, trans-4-(4-(((2R)-2-(2,6-dichloro-4-fluorophenyl)-2-hydroxyethyl)-(4,4-dimethylcyclohexyl)carbamoyl)-5-(trifluoromethyl)pyrazol-1-yl)-1-methylcyclohexane-1-carboxylic acid or trans-4-(4-(((2S)-2-(2,6-dichloro-4-fluorophenyl)-2-hydroxyethyl)-(4,4-dimethylcyclohexyl)carbamoyl)-5-(trifluoromethyl)pyrazol-1-yl)-1-methylcyclohexane-1-carboxylic acid], the IC50 was 1.2e+06 pM. Take `CC1(C)CCC(N(CC(O)c2c(Cl)cc(F)cc2Cl)C(=O)c2cnn([C@H]3CC[C@](C)(C(=O)O)CC3)c2C(F)(F)F)CC1` (single isomer, unassigned) [Example 362, trans-4-(4-(((2R)-2-(2,6-dichloro-4-fluorophenyl)-2-hydroxyethyl)-(4,4-dimethylcyclohexyl)carbamoyl)-5-(trifluoromethyl)pyrazol-1-yl)-1-methylcyclohexane-1-carboxylic acid or trans-4-(4-(((2S)-2-(2,6-dichloro-4-fluorophenyl)-2-hydroxyethyl)-(4,4-dimethylcyclohexyl)carbamoyl)-5-(trifluoromethyl)pyrazol-1-yl)-1-methylcyclohexane-1-carboxylic acid]: the IC50 is 57500 pM. As to `O=C(CN(Cc1ccc(F)cc1)C(=O)c1cnn([C@H]2CCC(C(=O)O)C2)c1C(F)(F)F)c1c(Cl)cncc1Cl` (stereo in doubt) [Example 93, (1S,3S)-3-(4-((2-(3,5-dichloropyridin-4-yl)-2-oxoethyl)-((4-fluorophenyl)methyl)carbamoyl)-5-(trifluoromethyl)pyrazol-1-yl)cyclopentane-1-carboxylic acid], the IC50 was 575000 pM. For `CC(C)(C)CN(C[C@H](O)c1ncccc1Cl)C(=O)c1cnn([C@H]2CC[C@](C)(C(=O)O)CC2)c1C(F)(F)F` (stereo in doubt) [Example 402, trans-4-(4-((2-(3-chloropyridin-2-yl)-2-hydroxyethyl)-(2,2-dimethylpropyl)carbamoyl)-5-(trifluoromethyl)pyrazol-1-yl)-1-methylcyclohexane-1-carboxylic acid], the IC50 is at least 1.05e+07 pM. The same measure, in the same setting: then `CC(C)(C)CN(C[C@@H](O)c1ncccc1Cl)C(=O)c1cnn([C@H]2CC[C@](C)(C(=O)O)CC2)c1C(F)(F)F` (stereo in doubt) [Example 403, trans-4-(4-((2-(3-chloropyridin-2-yl)-2-hydroxyethyl)-(2,2-dimethylpropyl)carbamoyl)-5-(trifluoromethyl)pyrazol-1-yl)-1-methylcyclohexane-1-carboxylic acid], with 1.74e+06 pM.

Take `O=C(CN(Cc1ccc(F)cc1)C(=O)c1cnn([C@H]2CC[C@H](C(=O)O)CC2)c1C(F)(F)F)c1c(Cl)cncc1Cl` [Example 1, trans-4-(4-((2-(3,5-dichloropyridin-4-yl)-2-oxoethyl)(4-fluorobenzyl)carbamoyl)-5-(trifluoromethyl)-1H-pyrazol-1-yl)cyclohexanecarboxylic acid]: the IC50 was 24000 pM. Consider `C[C@]1(C(=O)O)CC[C@H](n2ncc(C(=O)N(CC(=O)c3c(Cl)cc(F)cc3Cl)Cc3cc(F)cc(F)c3)c2C(F)(F)F)CC1` [Example 2, trans-4-(4-((2-(2,6-dichloro-4-fluorophenyl)-2-oxoethyl)(3,5-difluorobenzyl)carbamoyl)-5-(trifluoromethyl)-1H-pyrazol-1-yl)-1-methylcyclohexanecarboxylic acid], for which the IC50 was 7590 pM. For `Cc1csc(C)c1C(=O)CN(Cc1cc(F)cc(F)c1)C(=O)c1cnn([C@H]2CC[C@H](C(=O)O)CC2)c1C(F)(F)F` [Example 3, trans-4-(4-((3,5-difluorobenzyl)(2-(2,4-dimethylthiophen-3-yl)-2-oxoethyl)carbamoyl)-5-(trifluoromethyl)-1H-pyrazol-1-yl)cyclohexanecarboxylic acid], the IC50 is above 1e+07 pM.

As to `CS(=O)(=O)c1cc(Cl)c(C(=O)CN(Cc2cc(F)cc(F)c2)C(=O)c2cnn([C@H]3CC[C@H](C(=O)O)CC3)c2C(F)(F)F)c(Cl)c1` [Example 4, trans-4-(4-((2-(2,6-dichloro-4-(methylsulfonyl)phenyl)-2-oxoethyl)(3,5-difluorobenzyl)carbamoyl)-5-(trifluoromethyl)-1H-pyrazol-1-yl)cyclohexanecarboxylic acid], the IC50 was 380000 pM. Turning to `O=C(CN(Cc1cc(F)cc(F)c1)C(=O)c1cnn([C@H]2CC[C@H](C(=O)NO)CC2)c1C(F)(F)F)c1c(Cl)cncc1Cl` [Example 5, N-(2-(3,5-dichloropyridin-4-yl)-2-oxoethyl)-N-(3,5-difluorobenzyl)-1-(trans-4-(hydroxycarbamoyl)cyclohexyl)-5-(trifluoromethyl)-1H-pyrazole-4-carboxamide], the IC50 was 209000 pM. For the molecule `CONC(=O)[C@H]1CC[C@H](n2ncc(C(=O)N(CC(=O)c3c(Cl)cncc3Cl)Cc3cc(F)cc(F)c3)c2C(F)(F)F)CC1` [Example 6, N-(2-(3,5-dichloropyridin-4-yl)-2-oxoethyl)-N-(3,5-difluorobenzyl)-1-(trans-4-(methoxycarbamoyl)cyclohexyl)-5-(trifluoromethyl)-1H-pyrazole-4-carboxamide], the IC50 is 87100 pM.

Consider `COc1cccc(O)c1C(=O)CN(Cc1cc(F)cc(F)c1)C(=O)c1cnn([C@H]2CC[C@H](C(=O)O)CC2)c1C(F)(F)F` [Example 7, trans-4-(4-((3,5-difluorobenzyl)(2-(2-hydroxy-6-methoxyphenyl)-2-oxoethyl)carbamoyl)-5-(trifluoromethyl)-1H-pyrazol-1-yl)cyclohexanecarboxylic acid], for which the IC50 is 4.57e+06 pM.

Turning to `O=C(CN(Cc1cc(F)cc(F)c1)C(=O)c1cnn([C@H]2CC[C@H](C(=O)O)CC2)c1C(F)(F)F)c1cc[nH]n1` [Example 8, trans-4-(4-((3,5-difluorobenzyl)(2-oxo-2-(1H-pyrazol-3-yl)ethyl)carbamoyl)-5-(trifluoromethyl)-1H-pyrazol-1-yl)cyclohexanecarboxylic acid], the IC50 is above 1e+07 pM. Regarding `O=C(CN(Cc1cc(F)cc(F)c1)C(=O)c1cnn(C2CCC(C(=O)O)CC2)c1C(F)(F)F)c1c(O)cccc1O` (stereo not drawn) [Example 9, 4-(4-((3,5-difluorobenzyl)(2-(2,6-dihydroxyphenyl)-2-oxoethyl)carbamoyl)-5-(trifluoromethyl)-1H-pyrazol-1-yl)cyclohexanecarboxylic acid], the IC50 was above 1e+07 pM. Turning to `O=C(c1cnn([C@H]2CC[C@H](C(=O)O)CC2)c1C(F)(F)F)N(Cc1cc(F)cc(F)c1)CC(F)(F)c1c(Cl)cncc1Cl` [Example 10, trans-4-(4-((2-(3,5-dichloropyridin-4-yl)-2,2-difluoroethyl)(3,5-difluorobenzyl)carbamoyl)-5-(trifluoromethyl)-1H-pyrazol-1-yl)cyclohexanecarboxylic acid], the IC50 was 25700 pM. In the case of `Nc1cccc(Cl)c1C(=O)CN(Cc1cc(F)cc(F)c1)C(=O)c1cnn([C@H]2CC[C@H](C(=O)O)CC2)c1C(F)(F)F` [Example 11, trans-4-(4-((2-(2-amino-6-chlorophenyl)-2-oxoethyl)(3,5-difluorobenzyl)carbamoyl)-5-(trifluoromethyl)-1H-pyrazol-1-yl)cyclohexanecarboxylic acid], the IC50 was 38000 pM.

The same assay, now with this note: result (pIC50, inhibition of RORγ transcriptional activity), HEK293T cells transfected with pM-ROR gamma, 8 concentrations 3.5 nM to 10.5 μM, 24 h incubation.
Turning to `O=C(CN(Cc1cc(F)cc(F)c1)C(=O)c1cnn([C@H]2CC[C@H](C(=O)O)CC2)c1C(F)(F)F)c1c(O)nc(O)nc1O` [Example 12, trans-4-(4-((3,5-difluorobenzyl)(2-oxo-2-(2,4,6-trihydroxypyrimidin-5-yl)ethyl)carbamoyl)-5-(trifluoromethyl)-1H-pyrazol-1-yl)cyclohexanecarboxylic acid], the IC50 is 3.72e+06 pM.
